Laboratory results: patent US20170029841A1, “METHODS AND COMPOSITIONS FOR SELECTIVE REGULATION OF PROTEIN EXPRESSION” (priority 2015, published 2017)

Tested on: maize tissue pools (tassel, ear, leaf, root, stem)
Test: siRNA profiling microarray assay of mts-siRNA sequences across maize tissues
Conditions: for 01DKD2 V8-V9 Tassel relative signal value: germplasm 01DKD2, V8-V9 tassel; for 01DKD2 V10-V12 Tassel relative signal value: germplasm 01DKD2, V10-V12 tassel; for 01DKD2 Other Tissue relative signal value: germplasm 01DKD2, combined signals from other tissue; for LH244 V8-V9 Tassel relative signal value: germplasm LH244, V8-V9 tassel; for LH244 V10-V12 Tassel relative signal value: germplasm LH244, V10-V12 tassel; for LH244 Other Tissue relative signal value: germplasm LH244, combined signals from other tissue
Method: A siRNA profiling microarray assay was performed using μParaflo® Microfluidics chips provided by LC Sciences LLC (Houston, Tex., USA) with 1,200 sequences selected from the thousands of mts-siRNA sequences identified from the differential bioinformatic analysis. The microarray chips contained triplicate probes of the complementary sequence for each of the 1,200 mts-siRNA sequences. Total RNA was purified from 26 maize tissue pools (duplicate or triplicate tissue pools) from either LH244 (ATCC deposit number PTA-1173) or 01DKD2 (I294213) (ATCC deposit number PTA-7859) inbred plants. Each of the 26 RNA samples were hybridized with the microarray chips that contain probes for the 1,200 mts-siRNA. Hybridization images were collected using a GenePix® 4000B laser scanner (Molecular Devices, Sunnyvale, Calif.) and digitized using Array-Pro® Analyzer image analysis software (Media Cybernetics, Rockville, Md.). Relative signal values were derived by background subtraction and normalization. Differentially expressed signals were determined by t-test with p<0.05. From the microarray analysis, about 500 mts-siRNA from the 1,200 were identified as being highly tassel-specific.
Selected mts-siRNA sequences aligning to one of the six cDNA sequences were used for further microarray analysis to determine differential expression across maize tissues. Microarray analysis for mts-siRNA sequences of normalized signal values for V8-V9 tassel, V10-V12 tassel, or combined signals from the other tissue for maize germplasm LH244 and 01DKD2 is presented in Tables 3-10. […] Signal value results are measured as relative signal values and standard error (p<0.05) is represented by (STDR). […] The mts-siRNA sequence corresponds to the sense or antisense strand of the corresponding mts-siRNA target sequence in the cDNA sequence. The mts-siRNA sequence may have a single nucleotide, a two nucleotide, or a three nucleotide mismatch with the aligned portion of the cDNA sequence, and the mts-siRNA sequence may align to the sense strand or antisense strand of the cDNA sequence. The mts-siRNA sequences provided here are found across different maize germplasms.

Substance	01DKD2 V8-V9 Tassel relative signal value	01DKD2 V10-V12 Tassel relative signal value	01DKD2 Other Tissue relative signal value	LH244 V8-V9 Tassel relative signal value	LH244 V10-V12 Tassel relative signal value	LH244 Other Tissue relative signal value
SEQ ID NO: 23: mts-siRNA sequence aligning to cDNA SEQ ID NO: 17 (CATCACCATGCACGGTCGTCGT; expressed or natural sequence)	27	318	4.3	183.5	514	2.6
SEQ ID NO: 24: mts-siRNA sequence aligning to cDNA SEQ ID NO: 17 (ATCACCATGCACGGTCGT; expressed or natural sequence)	16	174	3	104.5	322	7.7
SEQ ID NO: 25: mts-siRNA sequence aligning to cDNA SEQ ID NO: 17 (ACGACCGTGCATGGTGAT; expressed or natural sequence)	56	440	2.3	289	824.3	2.6
SEQ ID NO: 26: mts-siRNA sequence aligning to cDNA SEQ ID NO: 17 (CGCATGTCACATCGCCGTCCTC; expressed or natural sequence)	10	104	3.8	55.5	175.7	3.8
SEQ ID NO: 27: mts-siRNA sequence aligning to cDNA SEQ ID NO: 17 (CGGACATTTGCAGTTCTATGGT; expressed or natural sequence)	73	405.5	1	377.5	581.7	1.1
SEQ ID NO: 28: mts-siRNA sequence aligning to cDNA SEQ ID NO: 17 (GACATTTGCAGTTCTATGGTGT; expressed or natural sequence)	29	134.5	3.8	126.5	248	2.4
SEQ ID NO: 29: mts-siRNA sequence aligning to cDNA SEQ ID NO: 17 (CCGTGCATGGTGATGAATCC; expressed or natural sequence)	86	535.5	4	292.5	886.7	2.2
SEQ ID NO: 30: mts-siRNA sequence aligning to cDNA SEQ ID NO: 17 (CACCATGCACGGTCGTCGT; expressed or natural sequence)	32	282	6.5	173.5	495.7	4.2
SEQ ID NO: 31: mts-siRNA sequence aligning to cDNA SEQ ID NO: 17 (ACACGCATGTCACATCGCCGTC; expressed or natural sequence)	0	26.5	2.8	8	49	1.2
SEQ ID NO: 32: mts-siRNA sequence aligning to cDNA SEQ ID NO: 18 (TAGCCACACGGTCACGTTTGGAC; expressed or natural sequence)	7.5	516	2.8	376.5	118	2
SEQ ID NO: 33: mts-siRNA sequence aligning to cDNA SEQ ID NO: 18 (AGGGTGAATCGGATGTTGAGGTGG; expressed or natural sequence)	4.5	648.5	2.8	111.5	1032.7	17.8
SEQ ID NO: 34: mts-siRNA sequence aligning to cDNA SEQ ID NO: 18 (ACGTGCATATCGCCATCCTCTGCT; expressed or natural sequence)	8.5	982	3.5	848.5	572.7	3
SEQ ID NO: 35: mts-siRNA sequence aligning to cDNA SEQ ID NO: 18 (TAGCCACACGGTCACGTTTGGACG; expressed or natural sequence)	4	519	2.8	437	117.7	1.6
SEQ ID NO: 36: mts-siRNA sequence aligning to cDNA SEQ ID NO: 18 (CGTGCATATCGCCATCCTCTGCT; expressed or natural sequence)	15.5	1225.5	4.3	906.5	606.7	2.2
SEQ ID NO: 37: mts-siRNA sequence aligning to cDNA SEQ ID NO: 18 (CAGAGGATGGCGATATGCACGTTG; expressed or natural sequence)	9.5	1224.5	3.3	554	553	1.5
SEQ ID NO: 38: mts-siRNA sequence aligning to cDNA SEQ ID NO: 18 (CTCAACATCCGATTCACCCTCA; expressed or natural sequence)	8.5	1305.5	3	768.5	1442.7	1.4
SEQ ID NO: 39: mts-siRNA sequence aligning to cDNA SEQ ID NO: 18 (CATCGACCAATGACATTCCCTC; expressed or natural sequence)	16	1514.5	1.5	442.5	2157.3	0.6
SEQ ID NO: 40: mts-siRNA sequence aligning to cDNA SEQ ID NO: 18 (CCTTGCGCCTTAACTATCGTGC; expressed or natural sequence)	7.5	452	2.8	119	448.7	1.5
SEQ ID NO: 41: mts-siRNA sequence aligning to cDNA SEQ ID NO: 18 (ACCCTTGCGCCTTAACTATCGTGC; expressed or natural sequence)	5	752	3	185.5	702.7	0.9
SEQ ID NO: 42: mts-siRNA sequence aligning to cDNA SEQ ID NO: 18 (ACTACAGTGAGAGTCTAGGAAAGC; expressed or natural sequence)	6	588	5.3	143.5	564.3	2.6
